Assays:
[1] = system: FRT cells; test: Intracellular calcium measurement (Fluo-4) in FRT cells; type: cell-based, rat; conditions: 30 and 100 μM, 20 min pretreatment, 100 μM ATP
Protocol: Intracellular calcium levels were monitored using Fluo-4 NW calcium assay kit (Invitrogen, Carlsbad, CA) as per the manufacturer's protocol in FRT and PC-3 cells. Briefly, the cells were cultured in a 96 well plate and incubated with 100 μL assay buffer including Fluo-4 NW. After 1 hour incubation, Fluo-4 fluorescence was measured with a FLUOstar Omega microplate reader equipped with syringe pumps and custom Fluo-4 excitation/emission filters (485/538 nm). Intracellular calcium increase was induced by application of 100 μM ATP.

[2] = biological target: T1, ANO1 (Homo sapiens, UniProt Q5XXA6, DEL476-501); test: Whole-cell patch-clamp in ANO1-expressing FRT cells; type: cell-based; conditions: 100 μM ATP, read-out: Inhibition of ANO1 chloride currents
T1 sequence (Q5XXA6 with tags, fused parts or gaps isoform Q5XXA6-5 DEL539-564): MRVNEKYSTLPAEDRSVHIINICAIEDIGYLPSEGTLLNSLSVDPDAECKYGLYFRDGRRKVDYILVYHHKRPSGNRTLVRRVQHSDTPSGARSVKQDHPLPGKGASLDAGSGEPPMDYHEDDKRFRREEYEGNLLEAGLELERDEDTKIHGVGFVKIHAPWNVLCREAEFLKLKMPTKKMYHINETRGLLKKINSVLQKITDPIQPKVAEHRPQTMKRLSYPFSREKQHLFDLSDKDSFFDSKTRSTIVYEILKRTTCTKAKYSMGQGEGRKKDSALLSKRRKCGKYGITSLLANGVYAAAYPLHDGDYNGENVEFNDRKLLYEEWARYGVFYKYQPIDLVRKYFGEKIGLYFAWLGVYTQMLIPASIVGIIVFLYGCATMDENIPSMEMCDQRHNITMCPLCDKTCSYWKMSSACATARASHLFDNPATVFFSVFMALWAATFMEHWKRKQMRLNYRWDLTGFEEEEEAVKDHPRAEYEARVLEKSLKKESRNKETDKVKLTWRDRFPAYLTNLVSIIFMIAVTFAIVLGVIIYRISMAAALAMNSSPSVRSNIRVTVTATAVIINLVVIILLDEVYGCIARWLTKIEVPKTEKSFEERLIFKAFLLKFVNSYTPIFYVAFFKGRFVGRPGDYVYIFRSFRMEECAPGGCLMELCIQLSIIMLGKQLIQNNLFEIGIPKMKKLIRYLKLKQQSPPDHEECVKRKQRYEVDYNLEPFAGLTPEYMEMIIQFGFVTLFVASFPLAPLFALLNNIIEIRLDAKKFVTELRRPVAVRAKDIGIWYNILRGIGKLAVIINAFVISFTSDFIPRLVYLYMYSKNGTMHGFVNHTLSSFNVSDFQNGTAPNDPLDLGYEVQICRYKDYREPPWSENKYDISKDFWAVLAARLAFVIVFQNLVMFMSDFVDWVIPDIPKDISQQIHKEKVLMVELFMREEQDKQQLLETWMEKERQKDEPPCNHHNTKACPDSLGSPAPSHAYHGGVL
Protocol: Patch-clamp recordings were performed on ANO1-expressing FRT cells using the whole-cell recording configuration. The bath solution contained (in mM): 140 NMDG-Cl, 1 CaCl2, 1 MgCl2, 10 glucose and 10 HEPES (pH 7.4). The pipette solution contained (in mM): 130 CsCl, 0.5 EGTA, 1 MgCl2, 1 Tris-ATP, and 10 HEPES (pH 7.2). Pipettes were pulled from borosilicate glass and had resistances of 3–5 MΩ after fire polishing. Seal resistances were between 3 and 10 GΩ. The liquid junction potential (~2.4 mV) was not corrected. After establishing the whole-cell configuration, whole-cell capacitance and series resistance were compensated with the amplifier circuitry. After establishing the whole-cell configuration, ANO1 was activated by ATP (100 μM). Whole-cell currents were elicited by applying hyperpolarizing and depolarizing voltage pulses from a holding potential of 0 mV to potentials between -80 mV and +80 mV in steps of 20 mV. Recordings were made at room temperature using an Axopatch-200B (Axon Instruments, Union City, CA). Currents were digitized and analyzed using a Digidata 1440A converter (Axon Instruments), and pCLAMP 10.2 software (Molecular Devices, Sunnyvale, CA). Currents were low-pass filtered at 1 kHz and sampled at 5 kHz.

[3] = system: PC-3 cells; test: Scratch wound healing assay in PC-3 cells; type: cell-based, human; conditions: 10 and 30 μM; 48 h post-wound
Protocol: PC-3 cells were cultured in a 96-well plate until they reached ~80% confluence as a monolayer and then the cell layer was wounded using a 96-Well WoundMaker (Essen BioScience, MI) and washed twice with fresh serum free media. The cells were incubated with serum free medium, and images of the wounds were taken using the IncuCyte ZOOM (Essen BioScience, MI). The wound recovery properties of test compounds were analyzed by the IncuCyte software.

[4] = design: method as in PMID 9827549; conditions: rat; oral 50 μmol/kg (~14.3 mg/kg) in propyleneglycol; cited from earlier work

O=c1cc(-c2ccc(O)c(O)c2)oc2cc(O)cc(O)c12 [luteolin]
Effect on ATP-induced cytosolic calcium increase [1]: not affected
inhibition at 10 µM ([2]; 10 μM): 55.3 ± 2.8%
inhibition at 100 µM ([2]; 100 μM): 99.2 ± 0.2%
Inhibition of wound recovery, high versus low ANO1 expressing PC-3 cells [3]: more strongly inhibited
Maximum plasma level of free luteolin [4]: ~ 3.08 μM
Maximum plasma level of total luteolin (free luteolin and its conjugates) [4]: ~ 15.5 μM

— PMC5376326, “Inhibition of ANO1 by luteolin and its cytotoxicity in human prostate cancer PC-3 cells” (PLoS ONE, 2017)
